Values quoted from earlier work, collected in US11278512B2, “Compositions comprising a metal and L-serine, and uses thereof” (Brain Chemistry Labs, priority 2019, dated 2022).

Assays:
[1] = tested on: neurofibrillary tangles (NFTs) and β-amyloid plaques
[2] = design: reduction in ALSFRS (Amyotrophic Lateral Sclerosis Functional Rating Scale): dose or concentration left out as unconfirmed

Compound: N[C@@H](CO)C(=O)O [L-serine]
- misincorporation of BMAA into human neuroproteins; protein misfolding, aggregation and apoptosis induced by BMAA (human neuroproteins): blocks misincorporation
- BMAA-induced microglial activation and proteinopathies along the spine, including deposition of TDP-43 and FUS ([1]; BMAA-induced): blocks
- density of neurofibrillary tangles (NFTs) and β-amyloid plaques in the brain ([1]; non-human primates): decreases the density

Compound: [Zn] [Zinc, zinc]
- reduction in ALSFRS (Amyotrophic Lateral Sclerosis Functional Rating Scale) ([2]; daily dosing with for three months, approximates the reduction achieved by Riluzole): ~30%
- safety when administered to ALS patients ([2]; up to 90 mg/day): safe
